Experimental data published in ChEMBL document CHEMBL4359816, “Discovery and Optimization of Quinolinone Derivatives as Potent, Selective, and Orally Bioavailable Mutant Isocitrate Dehydrogenase 1 (mIDH1) Inhibitors” (J Med Chem, 2019).
≈ marks a conversion by molar mass, not a printed value. Each block holds one compound with its values, some of them ahead of it.

What was measured:
[1] = Metabolic stability in human liver microsomes assessed as compound remaining after 30 mins; type: ADME, Microsome; conditions: read-out: Stability
[2] = Metabolic stability in mouse liver microsomes assessed as compound remaining after 30 mins; type: ADME, Microsome; conditions: read-out: Stability
[3] = Half-life in BALB/c mouse at 5 mg/kg, po measured up to 24 hrs; type: ADME, organism-based; conditions: in vivo
[4] = biological target: T1, Isocitrate dehydrogenase [NADP] cytoplasmic (Homo sapiens, UniProt O75874, R132C); assay: Inhibition of IDH1 R132C mutant in human HCT116 cells assessed as reduction in 2-HG levels after 24 hrs by RapidFire high-throughput mass spectrometry assay; type: cell-based
[5] = biological target: T1, Isocitrate dehydrogenase [NADP] cytoplasmic; assay: Inhibition of human Myc-DDK-tagged IDH1 R132C mutant assessed as reduction in NADPH consumption pre-incubated for 15 mins followed by alpha-ketoglutarate substrate and NADPH addition after 45 mins by diaphorase and resazurin dye based assay
[6] = Total Cmax in BALB/c mouse at 5 mg/kg, po after 1 hr; type: ADME, organism-based; parameters: dose 5 mg/kg, route oral; conditions: in vivo
[7] = Kinetic solubility of the compound; type: physicochemical; conditions: read-out: Kinetic_solubility
[8] = biological target: T1, Isocitrate dehydrogenase [NADP] cytoplasmic; assay: Inhibition of human Myc-DDK-tagged IDH1 R132C mutant expressed in human U87MG cells assessed as reduction in 2-HG levels after 24 hrs by RapidFire high-throughput mass spectrometry assay; type: cell-based
[9] = biological target: Isocitrate dehydrogenase [NADP] cytoplasmic (Homo sapiens, UniProt O75874); assay: Inhibition of wild-type IDH1 (unknown origin) by NADPH fluorescence based assay
[10] = AUC (0 to 8 hrs) in BALB/c mouse at 5 mg/kg, po measured up to 24 hrs; type: ADME, organism-based; parameters: dose 5 mg/kg, time < 8 hr, route oral; conditions: in vivo
[11] = Oral bioavailability in rat at 5 mg/kg; type: ADME, organism-based; conditions: in vivo
[12] = Half-life in rat at 1 mg/kg, iv or 5 mg/kg, po; type: ADME, organism-based; conditions: in vivo
[13] = Total Cmax in mouse at 1 mg/kg, iv or 5 mg/kg, po; type: ADME, organism-based; conditions: in vivo
[14] = Protein binding in mouse plasma; type: ADME, cell-free; conditions: read-out: PPB (converted)
[15] = Clearance in mouse at 1 mg/kg, iv or 5 mg/kg, po; type: ADME, organism-based; conditions: in vivo
[16] = Efflux ratio of apparent permeability from basolateral side to apical side over apical side to basolateral side in human Caco2 cells; type: ADME, cell-based; conditions: Caco-2
[17] = biological target: Isocitrate dehydrogenase [NADP] cytoplasmic (Homo sapiens, UniProt O75874, R132G); assay: Inhibition of human Myc-DDK-tagged IDH1 R132G mutant expressed in human U87MG cells assessed as reduction in 2-HG levels after 24 hrs by RapidFire high-throughput mass spectrometry assay; type: cell-based
[18] = Total AUC (infinity) in dog at 0.5 mg/kg, iv; type: ADME, organism-based, Canis lupus familiaris; parameters: dose 0.5 mg/kg, time AUCmax, route intravenous; conditions: in vivo
[19] = fAUC (infinity) in mouse at 1 mg/kg, iv or 5 mg/kg, po; type: ADME, organism-based; conditions: in vivo
[20] = Apparent permeability of the compound across apical side to basolateral side in human Caco2 cells; type: ADME, cell-based; conditions: Caco-2
[21] = Metabolic stability in rat liver microsomes assessed as compound remaining after 30 mins; type: ADME, Microsome; conditions: read-out: Stability
[22] = Half-life in human hepatocytes; type: ADME, cell-based, Hepatocyte
[23] = Half-life in dog at 0.5 mg/kg, iv; type: ADME, organism-based, Canis lupus familiaris; conditions: in vivo
[24] = Octanol/aqueous buffer partition coefficient, log D of the compound at pH 7.4; type: physicochemical
[25] = Permeability of the compound by PAMPA; type: ADME; conditions: read-out: permeability
[26] = fAUC (infinity) in dog at 0.5 mg/kg, iv; type: ADME, organism-based, Canis lupus familiaris; conditions: in vivo
[27] = Total AUC (infinity) in mouse at 1 mg/kg, iv or 5 mg/kg, po; type: ADME, organism-based; conditions: in vivo
[28] = Clearance in rat at 1 mg/kg, iv or 5 mg/kg, po; type: ADME, organism-based; conditions: in vivo
[29] = Oral bioavailability in mouse at 5 mg/kg; type: ADME, organism-based; conditions: in vivo
[30] = Protein binding in human plasma; type: ADME, cell-free; conditions: read-out: PPB (converted)
[31] = Apparent permeability of the compound across basolateral side to apical side in human Caco2 cells; type: ADME, cell-based; conditions: Caco-2
[32] = Intrinsic clearance in human hepatocytes; type: ADME, cell-based, Hepatocyte; conditions: read-out: CLH
[33] = fAUC (infinity) in rat at 1 mg/kg, iv or 5 mg/kg, po; type: ADME, organism-based; conditions: in vivo
[34] = Total AUC (infinity) in rat at 1 mg/kg, iv or 5 mg/kg, po; type: ADME, organism-based; conditions: in vivo
[35] = Protein binding in dog plasma; type: ADME, cell-free, Canis lupus familiaris; conditions: read-out: PPB (converted)
[36] = Half-life in mouse at 1 mg/kg, iv or 5 mg/kg, po; type: ADME, organism-based; conditions: in vivo
[37] = biological target: Isocitrate dehydrogenase [NADP] cytoplasmic (Homo sapiens, UniProt O75874, R132L); assay: Inhibition of human Myc-DDK-tagged IDH1 R132L mutant expressed in human U87MG cells assessed as reduction in 2-HG levels after 24 hrs by RapidFire high-throughput mass spectrometry assay; type: cell-based
[38] = Protein binding in rat plasma; type: ADME, cell-free; conditions: read-out: PPB (converted)
[39] = Cmax in rat at 1 mg/kg, iv or 5 mg/kg, po; type: ADME, organism-based; conditions: in vivo
[40] = biological target: Isocitrate dehydrogenase [NADP] cytoplasmic (Homo sapiens, UniProt O75874, R132S); assay: Inhibition of human Myc-DDK-tagged IDH1 R132S mutant expressed in human U87MG cells assessed as reduction in 2-HG levels after 24 hrs by RapidFire high-throughput mass spectrometry assay; type: cell-based
[41] = Clearance in dog at 0.5 mg/kg, iv; type: ADME, organism-based, Canis lupus familiaris; conditions: in vivo
Homo sapiens = species on record: Homo sapiens; type: cell-based
[42] = Total plasma concentration in BALB/c mouse at 5 mg/kg, po at 4 hrs; type: ADME, organism-based
MDR1 (P-gp) = assay: Efflux ratio of apparent permeability from basolateral side to apical side over apical side to basolateral side in MDCK cells harboring MDR1 (unknown origin) at 10 uM incubated for 2 hrs by LC-MS/MS analysis; type: ADME, cell-based, Canis lupus familiaris; conditions: dog

T1 sequence (O75874 2-414 R132C limits assumed): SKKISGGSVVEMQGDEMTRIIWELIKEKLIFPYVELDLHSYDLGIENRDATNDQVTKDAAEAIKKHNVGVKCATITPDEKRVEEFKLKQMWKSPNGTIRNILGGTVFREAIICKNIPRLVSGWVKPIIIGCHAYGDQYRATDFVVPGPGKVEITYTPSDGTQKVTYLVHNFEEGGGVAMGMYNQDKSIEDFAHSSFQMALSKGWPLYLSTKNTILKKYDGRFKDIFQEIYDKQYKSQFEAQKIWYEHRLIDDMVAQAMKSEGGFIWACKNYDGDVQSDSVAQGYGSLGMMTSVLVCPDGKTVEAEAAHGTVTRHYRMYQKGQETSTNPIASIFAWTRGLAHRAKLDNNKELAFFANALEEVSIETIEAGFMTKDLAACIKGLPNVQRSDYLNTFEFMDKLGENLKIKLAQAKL
Sequence of Isocitrate dehydrogenase [NADP] cytoplasmic (Homo sapiens, UniProt O75874) (O75874 whole entry): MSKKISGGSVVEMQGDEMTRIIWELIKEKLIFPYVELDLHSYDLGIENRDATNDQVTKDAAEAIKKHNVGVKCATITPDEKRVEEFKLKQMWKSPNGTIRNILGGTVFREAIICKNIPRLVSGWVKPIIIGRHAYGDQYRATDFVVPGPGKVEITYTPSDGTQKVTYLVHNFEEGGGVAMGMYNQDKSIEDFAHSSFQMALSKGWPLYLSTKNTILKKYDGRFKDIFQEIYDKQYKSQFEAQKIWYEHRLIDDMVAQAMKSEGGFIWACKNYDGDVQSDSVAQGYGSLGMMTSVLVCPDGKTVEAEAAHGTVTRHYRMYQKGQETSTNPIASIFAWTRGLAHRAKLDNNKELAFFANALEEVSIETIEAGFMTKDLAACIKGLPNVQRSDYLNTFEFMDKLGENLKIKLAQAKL
Sequence of Isocitrate dehydrogenase [NADP] cytoplasmic (Homo sapiens, UniProt O75874, R132S) (O75874 2-414 R132S limits assumed): as the sequence (O75874 2-414 R132C limits assumed) above, with C131S counted along it
Sequence of Isocitrate dehydrogenase [NADP] cytoplasmic (Homo sapiens, UniProt O75874, R132G) (O75874 2-414 R132G limits assumed): as the sequence (O75874 2-414 R132C limits assumed) above, with C131G counted along it
Sequence of Isocitrate dehydrogenase [NADP] cytoplasmic (Homo sapiens, UniProt O75874, R132L) (O75874 2-414 R132L limits assumed): as the sequence (O75874 2-414 R132C limits assumed) above, with C131L counted along it

remaining at 0.5 h [1]: 84%
remaining at 0.5 h [2]: 69%
half-life [3]: 214 min
IC50 [4]: 3210 nM
IC50 [5]: 820 nM
Cmax [6]: 480 nM
solubility kinetic [7]: 0.64 µM (≈ 0.208 µg/mL)
IC50 [8]: 258 nM
IC50 [9]: 75 µM
AUC(0-t) at 8 h [10]: 2.66 µM·h
SMILES: Cc1nc(NCc2cc3cc(Cl)ccc3[nH]c2=O)ccc1C#N

bioavailability [11]: 75%
remaining at 0.5 h [1]: 97%
half-life [12]: 156 min
Cmax [13]: 5.2 µM
fraction unbound [14]: 0.0083
clearance [15]: 8.5 mL/min/kg
efflux ratio [16]: 1.65
IC50 [17]: 3 nM
AUC(0-inf) [18]: 5.8 µM·h
fAUC [19]: 0.178 µM·h
Papp A→B [20]: 5.73 ×10⁻⁶ cm/s
remaining at 0.5 h [21]: 88%
half-life [22]: 184 min
IC50 [4]: 40 nM
half-life [23]: 372 min
logD [24]: 2.74
IC50 [5]: 36 nM
Papp [25]: 12.7 ×10⁻⁶ cm/s
fAUC [26]: 0.132 µM·h
AUC(0-inf) [27]: 21.5 µM·h
solubility kinetic [7]: 5.7 µM (≈ 2.2 µg/mL)
clearance [28]: 16.4 mL/min/kg
bioavailability [29]: 85%
fraction unbound [30]: 0.0144
Papp B→A [31]: 9.47 ×10⁻⁶ cm/s
CLint scaled [32]: 19.1 mL/min/kg
fAUC [33]: 0.043 µM·h
IC50 [8]: 4 nM
AUC(0-inf) [34]: 10.7 µM·h
fraction unbound [35]: 0.0228
half-life [36]: 210 min
IC50 [37]: 5 nM
fraction unbound [38]: 0.0045
Cmax [39]: 1900 nM
IC50 [40]: 129 nM
clearance [41]: 4.3 mL/min/kg
SMILES: COc1cc2[nH]c(=O)c([C@H](C)Nc3ncc(C#N)c(OC)n3)cc2cc1Cl

remaining at 0.5 h [1]: 81%
remaining at 0.5 h [2]: 42%
half-life [3]: 76.2 min
IC50 [4]: 1920 nM
IC50 [5]: 2250 nM
Cmax [6]: 1060 nM
solubility kinetic [7]: 0.43 µM (≈ 0.146 µg/mL)
IC50 [8]: 1250 nM
IC50 [9]: 100 µM
AUC(0-t) at 8 h [10]: 2.45 µM·h
concentration at 4 h [42]: 100 nM
SMILES: COc1cc(NCc2cc3cc(Cl)ccc3[nH]c2=O)ccc1C#N
Ratio IC50 (Homo sapiens): 4

efflux ratio at 2 h, 10 µM (MDR1 (P-gp)): > 350
SMILES: N#Cc1ccnc(N2C(=O)CC[C@H]2C(=O)N(c2cncc(F)c2)[C@H](C(=O)NC2CC(F)(F)C2)c2ccccc2Cl)c1 [IVOSIDENIB]
